Assay [1] concerns the target T1, F508del CFTR (Homo sapiens, UniProt P13569, DEL508-508).
T1 construct: expressed in transfected cells; host or cells: HEK293 Griptite cells stably expressing F508del CFTR, transiently transfected with halide-sensitive eYFP
Kind of assay: YFP fluorescence quenching functional assay (iodide influx), HEK293 cells with F508del CFTR and halide sensitive YFP. Conditions: for remaining activity at 10 µM: read-out: % YFP quench. Format: cell-based. As to the method:
In addition to the MDS compounds, the 1120 Prestwick Library compounds were screened. (See FIGS. 7 to 12.) Of the compounds, one qualified as a “strong” hit, 3 as “medium” hits and 57 as “weak” hits. The Z score for the assay was 0.62. The top 50 hits were further tested in a counter screen in which the halide sensitive fluorescent compound (YFP) was expressed inside cells (Table 2). After incubation with the test compounds the ability of the cells to uptake iodide was measure by decreasing YFP fluorescence. In these cells this can only occur if functional CFTR is present at the cell surface (FIG. 7). The hits were also tested for the appearance of the Band C form of CFTR. […] The functionality of the compounds was further studied by the use of Iodide efflux assays for each compound in both BHK and the more physiologically relevant CFBE cells. […] FIG. 10 is a table of results for the 15 hit compounds which summarizes many experiments. […] The results for the best 15 compounds from the Prestwick Library, or “Prestwick 15”, are shown FIGS. 8, 9 and 10.
Strongly adhesive Human […] Kidney cells stably expressing both the human macrophage scavenger receptor (HEK293 Griptite, Invitrogen) and F508del CFTR were plated in 96-well plates and transiently transfected with pcDNA3 plasmid encoding a halide sensitive variant of eYFP. After 24-48 h later cells were exposed to 10 μM test compound in triplicate and incubated for an additional 24 h. Cells were stimulated for 20 minutes with a in a buffer containing 25 μM forskolin, 45 μM IBMX and 50 μM genistein final concentration. The high content screening assay was performed using a Cellomics platform. Iodide was added robotically to a final concentration of 50 mM and the resulting decrease in fluorescence was measured. Images were taken at time 0 and stored for subsequent use when calculating a mask so that only those cells that express YFP at time 0 are measured. The quenching was detected in 15 images taken over the course of an experiment lasting 40 seconds. Each test compound was compared to the following two controls: a negative control without drugs to assess photobleaching that may occur when the same field of view is repeatedly imaged, and a positive control with cells treated with a known potentiator. Results were generated from 150-300 cells per well.

Assay [2] deals with ΔF508-CFTR (Homo sapiens, UniProt P13569, DEL508-508). Format: cell-based. Set-up: which was then ligated into full length pNUT-CFTR linearized using Hpa1 and Pml1; expressed in transfected cells. Conditions: Prestwick library, initial corrector assay; for hit in screen (class letter): BHK cells; for hit in screen (score): standard deviations above untreated controls. As to the method:
BHK cells expressing 3HA-tagged ΔF508-CFTR between passages 5-8 were seeded in 96-well plates (Corning half area, black-sided, clear bottom) at 15,000 cells per well and incubated with culture medium for 24 h at 37° C. Each well was then treated with a different test compound (80 compounds per plate) for 24 h at 20 μM final concentration. The remaining 16 wells on each plate were used for control conditions. […] Cells were fixed in a 4% paraformaldehyde solution, washed with PBS, and blocked with PBS containing 5% fetal bovine serum (FBS) for 1 hat 4° C.
Blocking solution was replaced with 15 μl of primary antibody solution containing 1% FBS and mouse monoclonal anti-HA antibody (1:150 dilution, Sigma) in PBS. The plates were sealed and left at 4° C. overnight. After three washes with 100 μl PBS, cells were incubated for 1 h with 15 μl of secondary antibody solution containing 1% FBS and anti-mouse IgG conjugated with FITC (1:100 dilution, Sigma) in PBS. Cells were again washed three times with 100 μl of PBS and analyzed in a plate reader (Analyst™ HT96.384, Biosystems; 488 nm excitation/510 nm emission). […] The mean fluorescence of four untreated wells was used as the background signal when calculating deviations of the 80 compound-treated wells. Hits were then cherry-picked into reservoir plates and re-tested in duplicate using the same assay.
BHK cells expressing ΔF508-CFTR were incubated with test compounds (20 μM) for 24 hours at 37° C. in a 96 well format. Plasma membrane expression of ΔF508-CFTR was then assayed by immunofluorescence using a primary antibody directed against the inserted 3HA tag and a secondary antibody conjugated with a fluorophore (FITC). […] The positive compounds were selected and retested in duplicate to obtain an N of 3. At the re-screening stage, the intrinsic fluorescence of each potential hit was also measured and the fluorescent ones were not considered further.
Screening was performed using BHK cells that stably express F508-CFTR bearing three tandem haemagglutinin-epitope tags (3HA) and linker sequences in the fourth extracellular loop after amino acid 901 (Howard et al., 1995; Carlile et al., 2007; Robert et al., 2008). […] Screening was performed using the Prestwick Chemical Library of 1120 high-purity compounds.

[3] abbreviates: HEK293, 10 μM, 24 h, nc = 100% pc = 69.2.
Setting [4] is: 10 μM, 24 h, nc = 100% pc = 69.2.

Structures can show the parent of a compound that is named as a salt. Where two headings read alike, the source gives them in different places.

T1 sequence (P13569 with tags, fused parts or gaps DEL508-508): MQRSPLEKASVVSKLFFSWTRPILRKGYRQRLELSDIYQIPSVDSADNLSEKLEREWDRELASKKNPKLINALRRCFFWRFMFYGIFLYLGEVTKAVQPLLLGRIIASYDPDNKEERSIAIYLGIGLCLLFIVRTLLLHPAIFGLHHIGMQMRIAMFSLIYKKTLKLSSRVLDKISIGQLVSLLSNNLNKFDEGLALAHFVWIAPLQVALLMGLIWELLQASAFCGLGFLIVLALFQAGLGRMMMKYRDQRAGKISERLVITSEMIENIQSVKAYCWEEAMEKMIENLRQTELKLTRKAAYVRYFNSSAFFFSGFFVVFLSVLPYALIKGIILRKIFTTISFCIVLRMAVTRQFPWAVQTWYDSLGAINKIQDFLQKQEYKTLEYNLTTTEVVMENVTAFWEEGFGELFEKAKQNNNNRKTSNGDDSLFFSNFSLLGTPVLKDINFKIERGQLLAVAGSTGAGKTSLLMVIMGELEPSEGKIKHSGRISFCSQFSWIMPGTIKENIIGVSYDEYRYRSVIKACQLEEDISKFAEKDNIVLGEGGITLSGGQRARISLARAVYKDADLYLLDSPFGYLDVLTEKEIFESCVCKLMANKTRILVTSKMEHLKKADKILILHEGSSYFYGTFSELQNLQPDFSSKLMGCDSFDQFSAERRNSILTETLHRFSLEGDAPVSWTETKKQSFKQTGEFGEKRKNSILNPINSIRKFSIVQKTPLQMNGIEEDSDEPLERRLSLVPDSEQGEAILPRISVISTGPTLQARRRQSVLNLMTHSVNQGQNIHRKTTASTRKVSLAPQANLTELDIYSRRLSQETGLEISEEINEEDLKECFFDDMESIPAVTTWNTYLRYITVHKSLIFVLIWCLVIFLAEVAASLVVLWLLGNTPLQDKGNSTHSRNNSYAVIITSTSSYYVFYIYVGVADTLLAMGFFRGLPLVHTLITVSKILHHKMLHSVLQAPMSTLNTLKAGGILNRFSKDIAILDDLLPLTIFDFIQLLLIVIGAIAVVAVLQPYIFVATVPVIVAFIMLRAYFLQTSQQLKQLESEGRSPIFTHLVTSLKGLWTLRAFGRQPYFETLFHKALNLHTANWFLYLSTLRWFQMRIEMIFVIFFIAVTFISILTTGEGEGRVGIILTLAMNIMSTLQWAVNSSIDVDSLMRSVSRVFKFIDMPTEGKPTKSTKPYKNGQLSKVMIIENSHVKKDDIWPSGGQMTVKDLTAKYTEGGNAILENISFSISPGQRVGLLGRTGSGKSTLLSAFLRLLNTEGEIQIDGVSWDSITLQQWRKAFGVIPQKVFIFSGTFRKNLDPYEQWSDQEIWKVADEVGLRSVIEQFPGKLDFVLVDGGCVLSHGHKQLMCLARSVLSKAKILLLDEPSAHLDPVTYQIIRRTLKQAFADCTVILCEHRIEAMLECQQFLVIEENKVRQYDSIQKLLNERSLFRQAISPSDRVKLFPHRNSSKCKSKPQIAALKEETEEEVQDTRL
ΔF508-CFTR, sequence (P13569 with tags, fused parts or gaps DEL508-508): as above

As for `C#CCN(C)CCCOc1ccc(Cl)cc1Cl` [Clorgyline hydrochloride], the remaining activity at 10 µM in assay [1] (setting [3]) came to 77%. In assay [2], the “hit in screen (class letter)” value is “W (Medium and weak hits were defined as compounds giving a cell fluorescence signal that was between 2 and 3 or 1 and 2 standard deviations, respectively, above untreated control wells)”; the “hit in screen (score)” value was 1.0.

Turning to `O=C([O-])c1ccccc1-c1c2cc(Br)c(=O)cc-2oc2[c]([Hg+])c([O-])c(Br)cc12.[Na+].[Na+].[OH-]` [Merbromin], the “% YFP quench” value in assay [1] (setting [4]) was found to be 107%. In assay [2], the “hit in screen (class letter)” value is “S (strong hits were initially identified as those compounds giving a cell fluorescence signal that was ≧3 standard deviations (SD) above untreated control wells)” and the “hit in screen (score)” value came out at 3.6.

Regarding Cyanocobalamin, the “functional correction in YFP quenching assay” value in assay [1] (10 μM, 24 h) was “not functional”. For the same compound, the “% YFP quench” value in assay [1] (setting [4]) is reported as 100%. Moreover, in assay [2], the “hit in screen (class letter)” value was “W (Medium and weak hits were defined as compounds giving a cell fluorescence signal that was between 2 and 3 or 1 and 2 standard deviations, respectively, above untreated control wells)”; the “hit in screen (score)” value was 1.1.

For `CN(Cc1cnc2nc(N)nc(N)c2n1)c1ccc(C(=O)N[C@@H](CCC(=O)O)C(=O)O)cc1` (racemic) [Amethopterin (R, S)], in assay [1] (setting [4]), the “% YFP quench” value was 109%. In assay [2], the “hit in screen (class letter)” value was “W (Medium and weak hits were defined as compounds giving a cell fluorescence signal that was between 2 and 3 or 1 and 2 standard deviations, respectively, above untreated control wells)”; the “hit in screen (score)” value is reported as 1.2.

As for `CCN1C[C@]2(COC)CC[C@H](O)[C@@]34C5C[C@@H]6[C@@H](OC)C[C@](O)(C(CC23)C14)C5[C@H]6OC(C)=O` (stereo partly shown) [Condelphine], the remaining activity at 10 µM in assay [1] (HEK293, 24 h) was 97%. Also, in assay [2], the “hit in screen (class letter)” value is “W (Medium and weak hits were defined as compounds giving a cell fluorescence signal that was between 2 and 3 or 1 and 2 standard deviations, respectively, above untreated control wells)”; the “hit in screen (score)” value was found to be 1.6.

With `CC(C)(C(=O)c1cccnc1)c1cccnc1` [Metyrapone], the remaining activity at 10 µM in assay [1] (setting [3]) turned out to be 98%. Further, in assay [2], the “hit in screen (class letter)” value is “W (Medium and weak hits were defined as compounds giving a cell fluorescence signal that was between 2 and 3 or 1 and 2 standard deviations, respectively, above untreated control wells)”; the “hit in screen (score)” value amounted to 1.4.

For the compound `CC(C)(C)NCC(O)c1ccc(O)c(CO)c1` (stereo not shown) [Salbutamol], the remaining activity at 10 µM in assay [1] (setting [3]) is 97%. In assay [2], the “hit in screen (class letter)” value was “W (Medium and weak hits were defined as compounds giving a cell fluorescence signal that was between 2 and 3 or 1 and 2 standard deviations, respectively, above untreated control wells)”; the “hit in screen (score)” value is recorded as 1.0.

With `Cc1scc2c1N(C(=O)CN1CCN(C)CC1)c1ccccc1NC2=O` [Telenzepine dihydrochloride], the remaining activity at 10 µM in assay [1] (setting [3]) is 85%. Also, in assay [2], the “hit in screen (class letter)” value is “W (Medium and weak hits were defined as compounds giving a cell fluorescence signal that was between 2 and 3 or 1 and 2 standard deviations, respectively, above untreated control wells)”; the “hit in screen (score)” value was 1.3.

With `NC(=O)N1c2ccccc2C=Cc2ccccc21` [Carbamazenine], in assay [1] (setting [4]), the “% YFP quench” value was 86%. In addition, in assay [2], the “hit in screen (class letter)” value was “W (Medium and weak hits were defined as compounds giving a cell fluorescence signal that was between 2 and 3 or 1 and 2 standard deviations, respectively, above untreated control wells)”; the “hit in screen (score)” value worked out at 1.1.

Take `CC(C(=O)O)c1cccc(Oc2ccccc2)c1` (stereo not shown) [Fenoprofen calcium salt dihydrate]: in assay [1] (setting [3]), the remaining activity at 10 µM turned out to be 88%. In assay [2], the “hit in screen (class letter)” value was “W (Medium and weak hits were defined as compounds giving a cell fluorescence signal that was between 2 and 3 or 1 and 2 standard deviations, respectively, above untreated control wells)”; the “hit in screen (score)” value stood at 1.1.

Values taken from patent publication US20110009351A1, “SCREENING ASSAY TO IDENTIFY CORRECTORS OF PROTEIN TRAFFICKING DEFECTS” (Traffick Therepeutics Inc., priority 2007, published 2011).
